Reference: patent US12060349B2, “Glucosylceramide synthase inhibitors” (Genzyme Corporation, priority 2012, dated 2024)

Tests used:
[1] = system: B16 mouse melanoma cells; experiment: cell viability in the B16 cell-based assay (Viability, B16 IC50); conditions: Mus musculus, B16, read-out: Viability, B16 IC50
Outline: (§1)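 Two melanoma lines, mouse B16 and human C32, were treated and surface GM3 quantified by antibody immunofluorescence for IC50. A parallel viability readout gives the concentration killing 50% of cells, with values over 10 indicating no cell death.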

[2] = system: GM3 expression on the cell surface, B16 mouse melanoma cells; experiment: cell based phenotypic assay, cell surface GM3 by antibody mediated immunofluorescence, B16 (GM3 B16 IC50); conditions: Mus musculus, read-out: GM3 B16 IC50, B16 mouse melanoma cells; 50% inhibition of GM3 expression on the cell surface
Outline: (§2)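 Both lines undergo the phenotypic GM3 assay, and viability is recorded from that same cell-based run.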

[3] = system: GM3 expression on the cell surface, C32 human melanoma cells; experiment: cell based phenotypic assay, cell surface GM3 by antibody mediated immunofluorescence, C32 (GM3 C32 IC50); conditions: Homo sapiens, read-out: GM3 C32 IC50, C32 human melanoma cells; 50% inhibition of GM3 expression on the cell surface
Outline: as §2

[4] = target: T1, glucosylceramide synthase (Homo sapiens, UniProt Q16739); experiment: microsomal assay measuring conversion of ceramide to glucosylceramide by HPLC (GCS IC50); format: biochemical; conditions: concentration causing 50% inhibition of glucosylceramide synthase activity
T1 construct: Microsomes were isolated from A375 human melanoma cells; endogenous in cells; host or cells: A375 human melanoma cells (microsomal fraction, 100,000 g pellet)
T1 sequence (Q16739 1-394): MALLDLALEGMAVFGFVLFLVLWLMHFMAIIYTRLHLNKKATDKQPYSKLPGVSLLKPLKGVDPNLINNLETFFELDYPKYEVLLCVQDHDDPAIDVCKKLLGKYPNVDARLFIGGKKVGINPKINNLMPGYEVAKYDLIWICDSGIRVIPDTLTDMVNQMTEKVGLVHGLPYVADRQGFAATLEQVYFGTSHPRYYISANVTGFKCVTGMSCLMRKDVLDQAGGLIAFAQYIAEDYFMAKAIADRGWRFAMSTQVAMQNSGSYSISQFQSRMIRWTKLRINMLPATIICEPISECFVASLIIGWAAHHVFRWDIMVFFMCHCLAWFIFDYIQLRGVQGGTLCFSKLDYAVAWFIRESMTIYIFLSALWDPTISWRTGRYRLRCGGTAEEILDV
Outline: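 Microsomal preparation assayed for glucosylceramide synthase by direct HPLC measurement of ceramide conversion to glucosylceramide. GCS IC50 is the compound concentration giving 50% inhibition of enzyme activity.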

[5] = system: jck mice; experiment: glucosylceramide synthase inhibition in a model of polycystic kidney disease (jck mice); format: in vivo, mouse; conditions: FIG. 3
Description: Mice homozygous for the Nek8jck mutation develop polycystic kidney disease (“jck mice”). […] Disease is progressive but not evident by kidney palpation until at least 4 to 5 weeks of age. Homozygotes generally remain active until shortly before death and usually die between 20 and 25 weeks of age. […] No histologic abnormalities are found in the liver, spleen, or pancreas. (Atala et al., 1993).
To evaluate the effects of a GCS inhibitor on polycystic kidney disease, Compound 156, (S)-quinuclidin-3-yl (2-(4′-(2-methoxyethoxy)-[1,1′-biphenyl]-4-yl)propan-2-yl)carbamate was administered in the feed of jck mice at doses of 15, 30 and 50 mg/kg. A second compound, quinuclidin-3-yl (2-(4′-fluoro-[1,1′-biphenyl]-3-yl)propan-2-yl)carbamate (hereinafter “GZ 161”) was administered in the feed of jck mice at a dose of 60 mg/kg.
Administration of the compound was started between 3 and 4 weeks of age, and continued until the mice were sacrificed at 9 weeks of age. The effect of the compounds on the disease phenotype was evaluated by measurement of body weight, blood urea nitrogen (“BUN”), and serum GL1. Additional effects on kidney/body weight (K/BW), cyst volume, BUN, kidney GL1, and serum GL1 were also measured at the end of life time point of the study.

[6] = system: C32 human melanoma cells; experiment: cell viability in the C32 cell-based assay (Viability, C32 IC50); conditions: Homo sapiens, C32, read-out: Viability, C32 IC50, C32 cells; concentration causing 50% cell death; values greater than 10 represent a lack of cell death
Outline: as §1

[7] = system: K14 mouse; experiment: K14 mouse model of type 2 Gaucher disease; format: in vivo
Description: As noted above, Gaucher Disease results from a deficiency of the lysosomal enzyme glucocerebrosidase (GC). In the most common phenotype of Gaucher disease (type 1), pathology is limited to the reticuloendothelial and skeletal systems and there are no neuropathic symptoms. See Barranger, Glucosylceramide lipidosis: Gaucher disease. In: Scriver CR BA, Sly WS, Valle D, editor. The Metabolic Basis of Inherited Disease. New York: McGraw-Hill. pp. 3635-3668 (2001). In neuropathic Gaucher disease (nGD), subdivided into type 2 and type 3 Gaucher disease, the deficiency of glucocerebrosidase (GC) causes glucosylceramide (GluCer; GL-1) and glucosylsphingosine (GluSph) to accumulate in the brain, leading to neurologic impairment. Type 2 Gaucher disease is characterized by early onset, rapid progression, extensive pathology in the viscera and central nervous system, and death usually by 2 years of age. Type 3 Gaucher disease, also known as subacute nGD, is an intermediate phenotype with varying age of onset and different degrees of severity and rates of progression. Goker-Alpan et al., The Journal of Pediatrics 143: 273-276 (2003). A recent development has produced the K14 lnl/lnl mouse model of type 2 Gaucher disease (hereinafter, the “K14 mouse”); this mouse model closely recapitulates the human disease showing ataxia, seizures, spasticity and a reduced median lifespan of only 14 days. Enquist et al., PNAS 104: 17483-17488 (2007).
As in patients with nGD, several mouse models of the disease have increased levels of GluCer and GluSph in the brain due to the deficiency in GC activity. Liu et al., PNAS 95: 2503-2508 (1998) and Nilsson, J. Neurochem 39: 709-718 (1982). The “K14” mice display a neuropathic phenotype that shares many pathologic features with type 2 Gaucher disease, such as neurodegeneration, astrogliosis, microglial proliferation, and increased levels of GluCer and GluSph in specific brain regions. Enquist et al. (2007).
Clinical management of patients affected by nGD poses a challenge for treating physicians both because of the severity of type 2 disease and the inability of the current therapies to cross the blood brain barrier (BBB). Current treatment of non-nGD relies on the intravenous delivery of recombinant human glucocerebrosidase (Imiglucerase; Cerezyme™) to replace the missing enzyme or the administration of glucosylceramide synthase inhibitors to attenuate substrate (GL-1) production. […] Current small molecule glucosylceramide synthase inhibitors in the clinic are not likely to address the neuropathic phenotypes of nGD.

[8] = all three dose groups (15, 30 and 50 mg/kg in feed), vs vehicle control group
[9] = in feed at 15, 30 and 50 mg/kg, associated with GL1 inhibition

**Q.** For `COCCOc1ccc(-c2ccc(C(C)(C)NC(=O)O[C@@H]3CN4CCC3CC4)cc2)cc1` [Example 156, (S)-Quinuclidin-3-yl (2-(4′-(2-methoxyethoxy)-[1,1′-biphenyl]-4-yl)propan-2-yl)carbamate], which IC50 [1] is on record?
**A.** 4.74 µM

**Q.** What about the IC50 [2] of the same molecule?
**A.** 43.7 nM

**Q.** What about the IC50 [3] of the same molecule?
**A.** 1.31 nM

**Q.** And the IC50 [4]?
**A.** 4.14 nM

**Q.** And the body weight ([5]; 30 mg/kg in feed, vs vehicle control group)?
**A.** statistically different

**Q.** What about the body weight ([5]; 50 mg/kg in feed, vs vehicle control group) of the same molecule?
**A.** statistically different

**Q.** And the “BUN (blood urea nitrogen)” value [5, 8]?
**A.** statistically different

**Q.** What about the cyst volume [5, 8] of the same molecule?
**A.** statistically different

**Q.** And the “kidney to body weight (K/BW)” value [5, 8]?
**A.** statistically different

**Q.** And the cyst growth [5, 9]?
**A.** reduced

**Q.** And the kidney function [5, 9]?
**A.** preservation

**Q.** And the GL1 levels ([5]; in feed at 15, 30 and 50 mg/kg, from 3-4 weeks to 9 weeks of age, vs vehicle control)?
**A.** dose-dependent inhibition

**Q.** And the IC50 [6]?
**A.** 763 nM

**Q.** For `CC(C)(NC(=O)OC1CN2CCC1CC2)c1cccc(-c2ccc(F)cc2)c1` (stereo not drawn) [GZ 161, quinuclidin-3-yl (2-(4′-fluoro-[1,1′-biphenyl]-3-yl)propan-2-yl)carbamate], which “kidney to body weight (K/BW)” value ([5]; 60 mg/kg in feed, vs vehicle control group) is on record?
**A.** statistically different

**Q.** What does the source list for `CC(C)(NC(=O)OC1CN2CCC1CC2)c1cccc(-c2ccc(F)cc2)c1` (stereo not drawn) [Gz161, Quinuclidin-3-yl (2-(4′-fluoro-[1,1′-biphenyl]-3-yl)propan-2-yl)carbamate]?
**A.** brain GluCer [7]: reduce; brain GluSph [7]: reduce; brain neuropathology [7]: reduced; lifespan [7]: extended
